This note sets out measurements from patent US12390405B2, “Personal care compositions” (Colgate-Palmolive Company, priority 2021, dated 2025).

For series [1], the system named is darkly pigmented human epidermal melanocyte cell model. The experiment in a line: Melanocyte viability, Alamar Blue. In kind it is cell-based. The settings on record: melanocytes, after 5 day of treatment, relative to untreated (100%). The procedure: In order to evaluate the melanin synthesis inhibition activity of hexylresorcinol, licorice extract and the combination thereof at certain concentrations, In vitro studies are conducted on darkly pigmented human epidermal melanocyte cell model. Darkly pigmented melanocytes cells are placed on 24-well plates. As a positive control, 0.00025% hydroquinone is used. Hexylresorcinol, licorice extract, and hydroquinone solutions are prepared as follows. […] For combination treatment, 2× solutions of hexylresorcinol and licorice extract are mixed. For single treatment, 2× solutions are mixed with the equal volume of media. Test samples are listed in Table 1. • 0.5 ml of each test sample is directly applied to the 24-well plates in triplicates. After 5 day of treatment, melanocyte viability and melanin synthesis are measured. Melanocyte viability is quantified using Alamar Blue solution, which is a nontoxic dye commonly used to assess cell viability.
On the technique in general: Alamar Blue is a resazurin reagent that responds to reducing activity.

The test system is the same in series [2]. The experiment in a line: Melanin synthesis in melanocytes (NaOH solubilized melanin, 490 nm), Table 2. It is filed as cell-based. The settings on record: for Change from untreated (reduction in melanin synthesis) / Melanin Synthesis: after 5 day of treatment; for Melanin Synthesis: relative to untreated (100%); for inhibits melanin synthesis: 5 day. The procedure: In order to evaluate the melanin synthesis inhibition activity of hexylresorcinol, licorice extract and the combination thereof at certain concentrations, In vitro studies are conducted on darkly pigmented human epidermal melanocyte cell model. Darkly pigmented melanocytes cells are placed on 24-well plates. As a positive control, 0.00025% hydroquinone is used. Hexylresorcinol, licorice extract, and hydroquinone solutions are prepared as follows. […] For combination treatment, 2× solutions of hexylresorcinol and licorice extract are mixed. For single treatment, 2× solutions are mixed with the equal volume of media. Test samples are listed in Table 1. • 0.5 ml of each test sample is directly applied to the 24-well plates in triplicates. After 5 day of treatment, melanocyte viability and melanin synthesis are measured. Melanin synthesis is quantified as follows. Cells are first rinsed with PBS to remove any residual solution and 200 μl NaOH is added to each cell. The plates are shaken for 4 hours to solubilize melanin produced by melanocytes. Solubilized melanin is measured by a spectrometer at 490 nm.

The subject of another series is melanocytes. The experiment in a line: Melanin synthesis inhibition, separate assay, Table 2a. As to conditions: sample concentrations per Table 2b. In kind it is cell-based, human. On the procedure: In a separate assay melanin synthesis is quantified as follows. Cells are first rinsed with PBS to remove any residual solution and 200 μl NaOH is added to each cell. The plates are shaken for 4 hours to solubilize melanin produced by melanocytes. Solubilized melanin is measured by a spectrometer at 490 nm.

Another series has as its system MelanoDerm tissues. In words: Melanin synthesis inhibition in MelanoDerm tissues, separate assay, Table 3a. In kind it is cell-based. On the procedure: In a separate assay, further comparisons are made to 2% kojic acid solution, which is the industry standard for in vitro tissue testing, and market-based product that is hydroquinone free (“MB HQ Free”) but contains kojic acid and other skin brightening ingredients. In total, 31 prototypes are prepared, and 26 of those are assessed in MelanoDerm™ tissues, as described above.

The subject of series [3] is human skin (leftover from abdominal plastic surgery). The experiment in a line: Wound healing on ex vivo human skin. On the procedure: The ability of various molecular weights of hyaluronic acid (HA) are tested to determine their respective properties relative to wound healing and repair.
In this study, human skin (leftover from abdominal plastic surgery) is used. An N=6 skin samples are used for each test condition for statistical comparison. Before treatment with test samples and positive control (Allantoin), a controlled mean wound of about 1 mm length is created on the skin by removing epidermis using a diamond spurr tip. Four microliters of test samples or Allantoin (positive control) are applied on the wound followed by incubation of the tissue for 6 days, and then harvesting of the tissues in order for hematoxylin and eosin staining for morphological analysis. The length of the wounds are measured and values are compared for statistical comparison with untreated Day 6 (self-healing of the skin in absence of any treatment).

Turning to `Oc1ccc(O)cc1` [Control, hydroquinone, reference compound], the Viability in series [1] is 92% ± 1%. In series [2], the “Change from untreated (reduction in melanin synthesis)” value was found to be 24.3% and the “Melanin Synthesis” value was 75.7% ± 0.9%. Further, in the series on melanocytes, the “Melanin Synthesis Inhibition (% inhibition vs. untreated)” value worked out at 20.6%.
For `CCCCCCc1ccc(O)cc1O` [HR 4, hexylresorcinol], the “Melanin Synthesis Inhibition (% inhibition vs. untreated)” value in the series on melanocytes was 8.8%.
Same read-out and setting: next, `CCCCCCc1ccc(O)cc1O` [HR 3, hexylresorcinol]: 9.3%.
Still for that read-out and setting: in the case of `CCCCCCc1ccc(O)cc1O` [HR 1, hexylresorcinol] it was 10.4%.
With `O=c1cc(CO)occ1O` [Kojic Acid, kojic acid], the “Melanin Synthesis Inhibition Relative to Untreated (% inhibition)” value in the series with MelanoDerm tissues was 73.51%.
Consider `CCCCCCc1ccc(O)cc1O` [HR1, hexylresorcinol], for which, in series [1], the Viability is 95% ± 3%. In series [2], the “Change from untreated (reduction in melanin synthesis)” value came out at 6.9% and the “Melanin Synthesis” value is recorded as 93.1% ± 0.7%.
For the compound `CCCCCCc1ccc(O)cc1O` [HR 2, hexylresorcinol], in the series with melanocytes, the “Melanin Synthesis Inhibition (% inhibition vs. untreated)” value turned out to be 10.2%.
As for `NC(=O)NC1NC(=O)NC1=O` (stereo not shown) [Allantoin], the “Percent (%) Reduction in Wound Width Relative to the Untreated Day 6” value in series [3] (Day 6) stood at 68%. In addition, the “Mean Wound Width Day 6” value in series [3] (Day 6 after four microliters applied on wound, N=6, untreated Day 6 874) came out at 280 μm.
On to `CCCCCCc1ccc(O)cc1O` [hexylresorcinol], for which the inhibits melanin synthesis was 2.1% in series [2] (0.0001% hexylresorcinol) and 6.9% in series [2] (0.00025% hexylresorcinol).
In the case of `CCCCCCc1ccc(O)cc1O` [HR2, hexylresorcinol], the Viability in series [1] is given as 105% ± 8%. In series [2], the “Change from untreated (reduction in melanin synthesis)” value was 2.1% and the “Melanin Synthesis” value is on record as 97.9% ± 2.1%.
